Assay results: patent US8569264B2, “Antibacterial 4,5-substituted aminoglycoside analogs having multiple substituents” (ISIS Pharmaceuticals, Inc., priority 2005, dated 2013)
Converted amounts (≈) assume the structure as drawn.

Key:
Type in all cases: cell-based
E. Coli = assay: MIC, E. Coli
Summary of the method: (§1)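 Broth microdilution in duplicate, 150 μL: overnight-culture bacteria were added to compound in 4% DMSO in water. Final inoculum was about 10^5–10^6 CFU/well.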

S. Aureus = assay: MIC, S. Aureus
Summary of the method: as §1

E. coli ATCC 25922 = assay: MIC, E. coli ATCC 25922; conditions: for MIC E. coli ATCC 25922: Example 111; for MIC: Escherichia coli
Procedure: (§2) The MIC assays are carried out in 150 μL volume in duplicate in 96-well clear flat-bottom plates. The bacterial suspension from an overnight culture growth in appropriate medium is added to a solution of test compound in 4% DMSO in water. Final bacterial inoculum is approximately 10^5-10^6 CFU/well. […] Both ampicillin and tetracycline are used as antibiotic-positive controls in each screening assay for S. pyogenes, E. coli imp-, E. coli, S. aureus, E. faecalis, K. pneumoniae and P. vulgaris. Ciprofloxacin is used as an antibiotic positive control in each screening assay for P. aeruginosa.
(§3) The following compounds were prepared using methods illustrated in the previous examples. The compounds were also examined in standard bacterial assays against E. Coli, S. Aureus, P. aurginosa, K. pneumoniae, P. vulgaris, and A. baumannii to determine activities. Each of the bacterial cultures that are available from ATCC (www.atcc.org) is identified by its ATCC number. A. baumannii is gentamicin sensitive Acinetobacter baumannii #2 from Walter Reed.

S. aureus ATCC 13709 = assay: MIC, S. aureus ATCC 13709; conditions: for MIC S. aureus ATCC 13709: Example 111; for MIC: Staphylococcus aureus
Procedure: as §2, §3

P. aurginosa ATCC 25416 = assay: MIC, P. aurginosa ATCC 25416
Procedure: as §2, §3

P. aurginosa ATCC 29248 = assay: MIC, P. aurginosa ATCC 29248
Procedure: as §2, §3

K. pneumoniae ATCC 10031 = assay: MIC, K. pneumoniae ATCC 10031; conditions: for MIC K. pneumoniae ATCC 10031: Example 111; for MIC: Klebsiella pneumoniae
Procedure: as §2, §3

P. vulgaris ATCC 8427 = assay: MIC, P. vulgaris ATCC 8427; conditions: for MIC P. vulgaris ATCC 8427: Example 111; for MIC: Proteus vulgaris
Procedure: as §2, §3

[1] = system: gentamicin sensitive Acinetobacter baumannii #2 from Walter Reed; assay: MIC, A. baumannii WReed 2; conditions: for MIC: Acinetobacter baumannii
Procedure: as §2, §3

In the case of `NCC1OC(OC2C(CO)OC(OC3C(O)C(N)CC(N)C3OC3OC(CNCCc4ccc(F)cc4)C(O)C(O)C3N)C2O)C(N)C(O)C1O` (centres unmarked) [Compound 15o], the “MIC E. Coli.” value (E. Coli; Example 109) is reported as 0.6 to 1.2 µM, the “MIC S. Aureus” value (S. Aureus; Example 109) is reported as 0.2 to 0.3 µM and the “MIC E. coli ATCC 25922” value (E. coli ATCC 25922) is reported as 1.3 to 2.5 µM. For the same compound, the “MIC S. aureus ATCC 13709” value (S. aureus ATCC 13709) was 0.3 to 0.6 µM, the “MIC P. aurginosa ATCC 25416” value (P. aurginosa ATCC 25416; Example 111) was over 40 µM and the “MIC P. aurginosa ATCC 29248” value (P. aurginosa ATCC 29248; Example 111) was over 40 µM. For the same compound, the “MIC K. pneumoniae ATCC 10031” value (K. pneumoniae ATCC 10031) was 0.6 to 1.3 µM, the “MIC P. vulgaris ATCC 8427” value (P. vulgaris ATCC 8427) was over 40 µM and the “MIC A. baumannii WReed 2” value ([1]; Example 111) was 10 to 20 µM.
In the case of `NCC1OC(OC2C(CO)OC(OC3C(O)C(N)CC(N)C3OC3OC(CNCCc4cccc(C(F)(F)F)c4)C(O)C(O)C3N)C2O)C(N)C(O)C1O` (centres unmarked) [Compound 15u], the “MIC E. coli ATCC 25922” value (E. coli ATCC 25922) is reported as 1.3 to 2.5 µM, the “MIC S. aureus ATCC 13709” value (S. aureus ATCC 13709) is reported as 0.3 to 0.6 µM and the “MIC P. aurginosa ATCC 25416” value (P. aurginosa ATCC 25416; Example 111) is reported as over 40 µM. For the same compound, the “MIC P. aurginosa ATCC 29248” value (P. aurginosa ATCC 29248; Example 111) was over 40 µM, the “MIC K. pneumoniae ATCC 10031” value (K. pneumoniae ATCC 10031) was 0.6 to 1.3 µM and the “MIC P. vulgaris ATCC 8427” value (P. vulgaris ATCC 8427) was over 40 µM. For the same compound, the “MIC A. baumannii WReed 2” value ([1]; Example 111) was 10 to 20 µM.
For `NCC[C@H](O)C(=O)N[C@@H]1C[C@H](N)[C@@H](O[C@H]2O[C@H](CO)[C@@H](O)[C@H](O)[C@H]2N)[C@H](O[C@@H]2O[C@H](CO)[C@@H](O[C@H]3O[C@@H](CN)[C@@H](O)[C@H](O)[C@H]3N)[C@H]2OCCNCCc2ccccc2)[C@H]1O` [Compound 46a, N-1-haba-2″-O-phenylethylaminoethyl paromomycin], the MIC (E. coli ATCC 25922; ATCC25922, Example 110) was 0.6 to 1.3 µM (≈ 0.518 to 1.12 µg/mL), the MIC (E. coli ATCC 25922; ATCC25922, Example 111) was 1.3 to 2.5 µM (≈ 1.12 to 2.16 µg/mL) and the MIC (S. aureus ATCC 13709; ATCC13709, Example 110) was 0.6 to 1.2 µM (≈ 0.518 to 1.04 µg/mL). It also gave an MIC (S. aureus ATCC 13709; ATCC13709, Example 111) of 0.2 to 0.3 µM (≈ 0.173 to 0.259 µg/mL), an MIC (P. aurginosa ATCC 25416; Example 110) of 0.6 to 1.3 µM (≈ 0.518 to 1.12 µg/mL) and an MIC (P. aurginosa ATCC 25416; Example 111) of 10 to 20 µM (≈ 8.64 to 17.3 µg/mL). For the same compound, the MIC (P. aurginosa ATCC 29248; Example 110) was 1.3 to 2.5 µM (≈ 1.12 to 2.16 µg/mL), the MIC (P. aurginosa ATCC 29248; Example 111) was 5 to 10 µM (≈ 4.32 to 8.64 µg/mL) and the MIC (K. pneumoniae ATCC 10031; ATCC10031, Example 110) was under 0.6 µM. It also gave an MIC (K. pneumoniae ATCC 10031; ATCC10031, Example 111) of 0.3 to 0.6 µM (≈ 0.259 to 0.518 µg/mL), an MIC (P. vulgaris ATCC 8427; ATCC8427, Example 110) of 0.6 to 1.3 µM (≈ 0.518 to 1.12 µg/mL) and an MIC (P. vulgaris ATCC 8427; ATCC8427, Example 111) of 5 to 10 µM (≈ 4.32 to 8.64 µg/mL). It also gave an MIC ([1]; Example 110) of 0.6 to 1.3 µM (≈ 0.518 to 1.12 µg/mL) and an MIC ([1]; Example 111) of 10 to 20 µM (≈ 8.64 to 17.3 µg/mL).
`NCCCNCCO[C@H]1[C@H](O[C@@H]2[C@@H](O)[C@H](NC(=O)[C@@H](O)CCN)C[C@H](N)[C@H]2O[C@H]2O[C@H](CO)[C@@H](O)[C@H](O)[C@H]2N)O[C@H](CO)[C@H]1O[C@H]1O[C@@H](CN)[C@@H](O)[C@H](O)[C@H]1N` [Compound 46b, N-1-haba-2″-O-(1,3-diamino)ethyl paromomycin] gave an MIC (E. coli ATCC 25922; ATCC25922, Example 110) of 5 to 10 µM (≈ 4.08 to 8.17 µg/mL), an MIC (S. aureus ATCC 13709; ATCC13709, Example 110) of 1.2 to 2.5 µM (≈ 0.98 to 2.04 µg/mL) and an MIC (P. aurginosa ATCC 25416; Example 110) of 1.3 to 2.5 µM (≈ 1.06 to 2.04 µg/mL). For the same compound, the MIC (P. aurginosa ATCC 29248; Example 110) was 5 to 10 µM (≈ 4.08 to 8.17 µg/mL), the MIC (K. pneumoniae ATCC 10031; ATCC10031, Example 110) was 1.3 to 2.5 µM (≈ 1.06 to 2.04 µg/mL) and the MIC (P. vulgaris ATCC 8427; ATCC8427, Example 110) was 5 to 10 µM (≈ 4.08 to 8.17 µg/mL). The MIC ([1]; Example 110) was 2.5 to 5 µM (≈ 2.04 to 4.08 µg/mL).
`NCC[C@H](O)C(=O)N[C@@H]1C[C@H](N)[C@@H](O[C@H]2O[C@H](CO)[C@@H](O)[C@H](O)[C@H]2N)[C@H](O[C@@H]2O[C@H](CO)[C@@H](O[C@H]3O[C@@H](CN)[C@@H](O)[C@H](O)[C@H]3N)[C@H]2O)[C@H]1O` [Compound 67, N-1-haba paromomycin] was tested, and the MIC (E. Coli; Escherichia coli, Example 107) was 5 to 10 µM (≈ 3.58 to 7.17 µg/mL), the MIC (S. Aureus; Staphylococcus aureus, Example 107) was 1.3 to 2.5 µM (≈ 0.932 to 1.79 µg/mL) and the MIC (E. coli ATCC 25922; ATCC25922, Example 110) was 2.5 to 5 µM (≈ 1.79 to 3.58 µg/mL). The MIC (E. coli ATCC 25922; ATCC25922, Example 111) was 5 to 10 µM (≈ 3.58 to 7.17 µg/mL), the MIC (S. aureus ATCC 13709; ATCC13709, Example 110) was 20 to 40 µM (≈ 14.3 to 28.7 µg/mL) and the MIC (S. aureus ATCC 13709; ATCC13709, Example 111) was 1.3 to 2.5 µM (≈ 0.932 to 1.79 µg/mL). For the same compound, the MIC (P. aurginosa ATCC 25416; Example 110) was 1.3 to 2.5 µM (≈ 0.932 to 1.79 µg/mL), the MIC (P. aurginosa ATCC 25416; Example 111) was 10 to 20 µM (≈ 7.17 to 14.3 µg/mL) and the MIC (P. aurginosa ATCC 29248; Example 110) was 5 to 10 µM (≈ 3.58 to 7.17 µg/mL). It also gave an MIC (P. aurginosa ATCC 29248; Example 111) of 5 to 10 µM (≈ 3.58 to 7.17 µg/mL), an MIC (K. pneumoniae ATCC 10031; ATCC10031, Example 110) of 0.6 to 1.3 µM (≈ 0.43 to 0.932 µg/mL) and an MIC (K. pneumoniae ATCC 10031; ATCC10031, Example 111) of 0.6 to 1.3 µM (≈ 0.43 to 0.932 µg/mL). The MIC (P. vulgaris ATCC 8427; ATCC8427, Example 110) was 5 to 10 µM (≈ 3.58 to 7.17 µg/mL), the MIC (P. vulgaris ATCC 8427; ATCC8427, Example 111) was 2.5 to 5 µM (≈ 1.79 to 3.58 µg/mL) and the MIC ([1]; Example 110) was 2.5 to 5 µM (≈ 1.79 to 3.58 µg/mL). The MIC ([1]; Example 111) was 5 to 10 µM (≈ 3.58 to 7.17 µg/mL).
